Assay results reported in patent publication US20220062258A1, “Heterocyclic derivatives” (Merck Patent GmbH, priority 2019, published 2022).

Columns and labels:
[1] = biological target: T1, MetAP-2 (Homo sapiens, UniProt P50579); experiment: Biochemical activity testing of MetAP-2 (enzyme-coupled assay, Met-Ala-Ser substrate); design: N-terminal His tag human rec MetAP2 (prepared in house, AA 2-478, final concentration (fc) 123 nM); His tag (N); TEV cleavage site (N); made in house
Procedure: Biochemical Activity Testing of MetAP-2
MetAP-2 activity was determined by an enzyme-coupled assay using the tripeptide Met-Ala-Ser (MAS) as substrate and recombinant human MetAP-2 (His-Tev-MetAP-2, prepared at Merck). The released methionine is converted by L-amino acid oxidase (AAO) to oxidized Methionine and hydrogen peroxide is released. In a second step horse radish peroxidase catalyzes the oxidation of the leuko dye dianisidine to oxidized dianisidine using hydrogen peroxide as co-substrate. The produced dianisidine ox was detected photometrically as increase in absorbance at 450 nm. Met-AP2 activity was determined in a kinetic measurement mode. The release of one molecule methionine corresponds to the production of one molecule dianisidine ox. The MetAP2 enzymatic activity is directly corresponding to the increase in absorbance per time.
In detail, the assay was performed in 384 well microtiter plate (Greiner 78110 MTP, transparent) in a total reaction volume of 50 μl at 22° C. 0.35 μg of N-terminal His tag human rec MetAP2 (prepared in house, AA 2-478, final concentration (fc) 123 nM), 1 unit horse radish Peroxidase (Roche, Mannheim), 0.02 unit L-amino acid oxidase (Merck, Darmstadt), 0.6 mM dianisidine (Merck, Darmstadt, dissolved in 50 mM HCl, 10% DMSO) were incubated in the absence or presence of the test compound (10 dilution concentrations) in 100 mM Hepes, 50 mM NaCl, 50 μM MnCl2 at pH 7.0 for 15 min at 22° C. The reaction was started by the addition of 500 μM (fc) MAS peptide (Merck, Darmstadt). After mixing the first absorbance measurement was performed on an Envision multimode reader (Perkin-Elmer, Waltham) at wavelength of 450 nm. The reaction was incubated at 22° C. for additional 45 min and the second absorbance measurement was performed. The increase of absorbance per time was determined. The control value used was the inhibitor-free reaction with 0.5% DMSO (fc). As pharmacological inhibitor control Fumagillin (Merck, Darmstadt) in a final concentration of 5 μM was used. The inhibitory values (IC50) were determined using the program ASSAY ANALYZER® from GeneData (Basel, Switzerland).
Target sequence in this assay (P50579 2-478): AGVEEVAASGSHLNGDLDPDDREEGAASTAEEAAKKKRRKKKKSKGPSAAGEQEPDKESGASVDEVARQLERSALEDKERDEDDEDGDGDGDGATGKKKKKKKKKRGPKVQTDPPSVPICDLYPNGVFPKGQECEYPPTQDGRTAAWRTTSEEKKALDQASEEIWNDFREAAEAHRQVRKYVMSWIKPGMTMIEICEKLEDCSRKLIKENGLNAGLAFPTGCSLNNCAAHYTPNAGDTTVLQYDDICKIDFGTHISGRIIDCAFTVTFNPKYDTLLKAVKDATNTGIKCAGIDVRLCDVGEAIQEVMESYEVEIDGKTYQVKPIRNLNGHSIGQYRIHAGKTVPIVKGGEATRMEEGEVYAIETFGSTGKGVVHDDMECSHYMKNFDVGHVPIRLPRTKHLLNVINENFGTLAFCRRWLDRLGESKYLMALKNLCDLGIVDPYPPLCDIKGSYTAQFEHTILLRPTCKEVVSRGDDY

[2] = biological target: T1, MetAP-2; experiment: Degradation of MetAP-2 in HCT116 cells (Western blot, MetAp2/GAPDH signal); assay type: cell-based; design: endogenous in cells; host or cells: HCT116; details: for Signal MetAp2/GAPDH normalized to untreated (DMSO): 24 hrs, HTC116 cells, <1 means degradation; for reduction of MetAP-2 protein: after 24 h
Procedure: See scans below. […] The initial MetAP-2 degradation results were obtained after 24 h incubation of the compounds in three different concentrations (0.1; 1; 10 μM), cell lysis, SDS-PAGE separation, blotting and antibody aided detection.
Comparison of MetAP2 protein levels in HTC116 cells after compound treatments at different concentrations and time points. As control, DMSO was used and its values set as “1”. MetAp2 values <1 means degradation.
2. Exemplary Testing of the Compound
HCT116 cells were sown in 6-well plates. Pipette 1 mL fresh medium to every well and incubate for at least 1 h (37° C., 5% CO2, 95% rH).
Harvest and count cells in Vi-Cell. Equinr. 70198475 Adjust cell concentration to 0.35e^6 cells/mL and add 1 mL of cell suspension (total 0,35e^6 cells/well).
Incubate cells for 24 hours (37° C., 5% CO2, 95% rH)
HCT116: 24 h: ˜50% confluent before treatment
Compounds will be thawed the first time, stock: 10 mM; final concentration: 10 μM & 1 μM & 0.1 μM
Treatment with DMSO based solution with Digital Dispenser: HCT116 platte 2A1.jpg_meta.xml • create new dispensing protocol for compound • apply name of test compound and its stock concentration (in mM) for testing • 3×1:10 dilution series • final 0.3% DMSO, DMSO normalization for every well • shaking after compound/DMSO addition
Incubate cells for further 24 hours (37° C., 5% C02, 95% rH)
HCT116: 70-80% confluent before lysis • after incubation cells were lysed with RIPA lysis buffer including Halt™
all steps performed on ice or at 4° C. • aspirate supernatant from cells • wash cells twice with 2.0 mL ice cold PBS buffer • aspirate supernatant from cells after each washing step • lyse cells with 100 μL Ripa lysis buffer per well • scrape cells with cell scraper and transfer lysates to Eppendorf Cups • incubate for 15 min on ice • centrifuge […] at 13000×g and 4° C. • transfer supernatants to fresh Eppendorf cups • removal of 20 μL lysate for BCA assay • aliquot and freeze at −20° C.
Determination of protein concentration of lysates with BCA Protein Assay Kit. BSA supplied with the kit is 2 mg/mL.
Dilute the standard (Stock BSA concentration=2 mg/mL) in a 96 well plate: Samples were run 1:4. Dilute in lysing buffer, lysing buffer alone was run to determine the background from detergents in the assay.
BCA reagent: Dilute Reagent A and Reagent B in a 1:50 ratio. To 9.8 mL A add 200 μL B.
Assay Procedure: Pipette 5 μL/well of standard or samples to 96 wells (see plate layout). Samples were run in duplicate. Blanks=5 μL/well PBS or 5 μL/well lysing buffer. Add 100 μL/well of the prepared BCA reagent. Tap plate to mix or shake for 1-2 min on the Eppendorf mixer. Incubate at 37° C. for 30 min.
Read the OD at 562 nm. Plate was read on EnVision 2104 Multilabel Reader (Perkin Elmer, Equipment Number 70160330) last verification of instrument 17.08.2017 (once a year) (A25/531). AEH181012_BCA.csv
In EXCEL the duplicates were averaged and the average background PBS was subtracted for the standard curve.
A trend line was created, the intercept (b) was set at 0. The R^2 should be >0.950 for acceptable results. The lysate buffer blank was subtracted from the test values and the averaged, background-corrected O.D. values were used with the equation to calculate mg/ml and then were corrected for the dilution factor for the final mg/mL value. Only results from OD values within the range of the standard curve are acceptable. Values outside of the standard curve range are ignored. BCA AEH00350 Berechnung.xlsx
6. Sample Calculation and Preparation • thaw lysates of AEH00350 on ice • calculate sample volume for Western Blot loading 10 μg total protein/13 μL per slot: • dilute samples with lysis buffer and 10× reducing agent & 4×LDS buffer to 10 μg. • heat them at 70° C. for 10 min and 1000 rmp
Target sequence in this assay (P50579 whole entry, the tested form may be a part): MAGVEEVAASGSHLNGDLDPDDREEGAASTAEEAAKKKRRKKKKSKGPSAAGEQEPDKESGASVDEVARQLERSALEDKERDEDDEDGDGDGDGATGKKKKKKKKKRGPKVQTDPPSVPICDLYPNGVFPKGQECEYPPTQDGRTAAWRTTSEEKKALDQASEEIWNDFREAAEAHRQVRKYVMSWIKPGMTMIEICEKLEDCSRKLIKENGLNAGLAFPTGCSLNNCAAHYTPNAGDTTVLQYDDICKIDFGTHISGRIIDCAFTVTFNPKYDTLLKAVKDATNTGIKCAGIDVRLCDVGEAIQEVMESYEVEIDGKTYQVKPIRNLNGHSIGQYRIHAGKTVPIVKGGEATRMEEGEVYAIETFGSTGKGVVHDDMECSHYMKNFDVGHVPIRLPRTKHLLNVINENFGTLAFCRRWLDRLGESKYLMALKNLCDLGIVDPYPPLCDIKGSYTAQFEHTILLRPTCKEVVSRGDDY
7. […]

Row | SMILES | IC50 [1] | Signal MetAp2/GAPDH normalized to untreated (DMSO) ([2]; 0.1 μM) | Signal MetAp2/GAPDH normalized to untreated (DMSO) ([2]; 1 μM) | Signal MetAp2/GAPDH normalized to untreated (DMSO) ([2]; 10 μM) | reduction of MetAP-2 protein ([2]; 10 μM) | reduction of MetAP-2 protein ([2]; 0.1 μM)
1 | O=C1CCC(N2C(=O)c3ccc(NCCOCCOCCOCCOCCNC(=O)c4cc5cc(N6CCC(O)(C(=O)NCc7cc(F)cc(F)c7)C6=O)ccc5[nH]4)cc3C2=O)C(=O)N1 (centres unmarked) [Compound A2, 5-[3-[(3,5-difluorophenyl)methylcarbamoyl]-3-hydroxy-2-oxo-pyrrolidin-1-yl]-N-[2-[2-[2-[2-[2-[[2-(2,6-dioxo-3-piperidyl)-1,3-dioxo-isoindolin-5-yl]amino]-ethoxy]ethoxy]ethoxy]ethoxy]ethyl]-1H-indole-2-carboxamide] | 250 nM | 1.2 | 1.0 | 0.6 | 40% | 
2 | O=C1CCC(N2C(=O)c3cccc(NCCOCCOCCOCCOCCOCCNC(=O)c4cc5cc(N6CCC(O)(C(=O)NCc7cc(F)cc(F)c7)C6=O)ccc5[nH]4)c3C2=O)C(=O)N1 (centres unmarked) [Compound A1, 5-[3-[(3,5-difluorophenyl)methylcarbamoyl]-3-hydroxy-2-oxo-pyrrolidin-1-yl]-N-[2-[2-[2-[2-[2-[2-[[2-(2,6-dioxo-3-piperidyl)-1,3-dioxo-isoindolin-4-yl]amino]ethoxy]ethoxy]ethoxy]ethoxy]ethoxy]ethyl]-1H-indole-2-carboxamide] | 190 nM | 0.7 | 0.6 | 0.3 | 70% | 30%
